Data as given in PMC8152814, “The modulatory role of sulfated and non-sulfated small molecule heparan sulfate-glycomimetics in endothelial dysfunction: absolute structural clarification, molecular docking and simulated dynamics, SAR analyses and ADMET studies” (RSC Medicinal Chemistry, 2021).

How the values were obtained:
Caco-2 cells = assay: Caco-2 permeability (bi-directional); type: in vitro ADME
Protocol: (§1) Physicochemical and ADMET properties of representative glycomimetics. […]
(§2) ymax = mean vehicle control response
(§3) Caco-2 Permeability (A-B or Bi-directional)
(§4) Caco-2 cells (ATCC, Virginia, USA) are used between passage numbers 40-60. Cells are seeded onto Millipore Multiscreen Transwell plates at 1 x 10^5 cells/cm2. The cells are cultured in DMEM and media is changed every two or three days. On day 20 the permeability study is performed. Cell culture and assay incubations are carried out at 37 °C in an atmosphere of 5 % CO2 with a relative humidity of 95%. On the day of the assay, the monolayers are prepared by rinsing both apical and basolateral surfaces twice with Hanks Balanced Salt Solution (HBSS) at the desired pH warmed to 37 °C. Cells are then incubated with HBSS at the desired pH in both apical and basolateral compartments for 40 min to stabilise physiological […]
(§5) The dosing solutions are prepared by diluting test compound with assay buffer to give a final test compound concentration of 10 µM (final DMSO concentration of 1 % v/v). The fluorescent integrity marker lucifer yellow is also included in the dosing solution. Analytical standards are prepared from test compound DMSO dilutions and transferred to buffer, maintaining a 1% v/v DMSO concentration. Typical assay buffer is composed of supplemented HBSS pH 7.4 but a range of other buffers and pH values can be used.
(§6) For assessment of A-B permeability, HBSS is removed from the apical compartment and replaced with test compound dosing solution. The apical compartment insert is then placed into a companion plate containing fresh buffer (containing 1 % v/v DMSO). For assessment of B-A permeability, HBSS is removed from the companion plate and replaced with test compound dosing solution. Fresh buffer (containing 1 % v/v DMSO) is added to the apical compartment insert, which is then placed into the companion plate.
(§7) At 120 min the apical compartment inserts and the companion plates are separated and apical and basolateral samples diluted for analysis. Test compound permeability is assessed in duplicate. Compounds of known permeability characteristics are run as controls on each assay plate. Test and control compounds are quantified by LC-MS/MS cassette analysis using an 8-point calibration with appropriate dilution of the samples. The starting concentration (C0) is determined from the dosing solution and the experimental recovery calculated from C0 and both apical and basolateral compartment concentrations.
(§8) The integrity of the monolayer throughout the experiment is checked by monitoring lucifer yellow permeation using fluorimetric analysis. Lucifer yellow permeation is high if monolayers have been damaged. If a lucifer yellow Papp value is above a pre-defined threshold in one individual test compound well, the compound may be re-tested or an n = 1 result is reported.
(§9) If lucifer yellow Papp values are above the threshold in both replicate wells for a test compound, the compound is re-tested. If this re-occurs upon repeat in both wells then toxicity or inherent fluorescence of the test compound is assumed.
(§10) The permeability coefficient (Papp) for each compound is calculated from the following […]
(§11) Where dQ/dt is the rate of permeation of the drug across the cells, C0 is the donor compartment concentration at time zero and A is the area of the cell monolayer. C0 is obtained from analysis […]
(§12) For bi-directional experiments, an efflux ratio (ER) is calculated from mean A-B and B-A data.
(§13) Three control compounds are screened alongside the test compounds, atenolol (human absorption 50%), propranolol (human absorption 90%) and talinolol (a substrate for […]

[1] = Caco-2 permeability (bi-directional); type: in vitro ADME; settings: human, Caco-2; A2B, 10 µM, 120 min
Protocol: as §1, §2, §3, §4, §5, §6, §7, §8, §9, §10, §11, §12, §13

in vitro = settings: mouse, microsomes, pH 7.4

Question: Which results are given for `O=C([O-])c1cc(OC[C@H](COS(=O)(=O)[O-])OS(=O)(=O)[O-])ccc1OCC(COS(=O)(=O)[O-])OS(=O)(=O)[O-].[Na+].[Na+].[Na+].[Na+].[Na+]` (mixture of isomers) [β-5, sodium 5-((R)-2,3-bis(sulfonatooxy)propoxy)-2-(2,3-bis(sulfonatooxy)propoxy)benzoate]?
Answer: Caco-2 cell permeability levels (Caco-2 cells): low or not detected; Caco-2 (A2B Papp) (Caco-2 cells; A2B, 10 µM, 120 min): Not detected; Caco-2 (B2A Papp) (Caco-2 cells; 10 µM, 120 min): Not detected

Question: For `COC(=O)c1cc(OC[C@H](COS(=O)(=O)[O-])OS(=O)(=O)[O-])ccc1OCCCCOS(=O)(=O)[O-].[Na+].[Na+].[Na+]` [Compound R-10, sodium (R)-3-(3-(methoxycarbonyl)-4-(4-(sulfonatooxy)butoxy)phenoxy)propane-1,2-diyl bis(sulfate)], which “Caco-2 cell permeability levels” value (Caco-2 cells) is on record?
Answer: Its value is “low or not detected”.

Question: And the “Caco-2 (B2A Papp)” value (Caco-2 cells; 10 µM, 120 min)?
Answer: Its value is “Not detected”.

Question: And the Papp A→B at 2 h, 10 µM [1]?
Answer: Its Papp A→B at 2 h, 10 µM is 0.931 ×10⁻⁶ cm/s.

Question: With `COC(=O)c1cc(OC[C@@H](COS(=O)(=O)[O-])OS(=O)(=O)[O-])ccc1OCCCCOS(=O)(=O)[O-].[Na+].[Na+].[Na+]` [Compound S-10, sodium (S)-3-(3-(methoxycarbonyl)-4-(4-(sulfonatooxy)butoxy)phenoxy)propane-1,2-diyl bis(sulfate)] as the compound, how does the half-life at 0.75 h, 3 µM (in vitro) read?
Answer: The half-life at 0.75 h, 3 µM was 69.3 h.
